Test results published in US9708259B2 (Hoffmann-La Roche Inc., priority 2013, dated 2017).
Changes are numbered by the printed parent chain. Where two headings read alike, the source gives them in different places.

Experiments:
human M1 = target: T1, human M1 (Homo sapiens, UniProt P11229); assay: M1 PAM assay (FLIPR intracellular calcium), human M1; format: cell-based
T1 construct: expressed in transfected cells; host or cells: CHO cells
T1 sequence (P11229 1-460): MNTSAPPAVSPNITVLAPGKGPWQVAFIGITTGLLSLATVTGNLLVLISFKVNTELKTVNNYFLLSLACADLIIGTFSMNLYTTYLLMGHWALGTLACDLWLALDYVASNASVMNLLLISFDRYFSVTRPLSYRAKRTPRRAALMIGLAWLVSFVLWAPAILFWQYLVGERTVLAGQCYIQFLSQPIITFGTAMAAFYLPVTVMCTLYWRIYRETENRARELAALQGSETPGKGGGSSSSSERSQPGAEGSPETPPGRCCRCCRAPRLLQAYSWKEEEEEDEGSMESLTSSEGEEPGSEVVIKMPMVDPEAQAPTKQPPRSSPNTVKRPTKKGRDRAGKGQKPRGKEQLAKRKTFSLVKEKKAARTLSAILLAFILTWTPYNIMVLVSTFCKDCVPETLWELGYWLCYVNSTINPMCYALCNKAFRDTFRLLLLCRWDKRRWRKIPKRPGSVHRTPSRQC
Procedure, shortened: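 CHO cells expressing M1, Fluo-4AM-loaded, in HEPES/probenecid HBSS pH 7.4, 1% DMSO final. Compounds pre-incubated 2 min for agonist activity versus 30 nM acetylcholine control. For PAM activity, acetylcholine EC20 added after the 2 min pre-incubation, then 2 min more before FLIPR intracellular Ca2+ read.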

ratM1 = target: T2, ratM1 (Rattus norvegicus, UniProt P08482); assay: M1 PAM assay (FLIPR intracellular calcium), rat M1; format: cell-based
T2 construct: expressed in transfected cells; host or cells: CHO cells (stated generally for the assay, not specifically for rat M1)
T2 sequence (P08482 1-460): T1 sequence (P11229 1-460) with A5V, T254S, P309S, R320K, A337G, I413V

[1] = CHO human M1 cells, FLIPR Ca2+, with EC20 of acetylcholine, first value of the cell, read-out: hM1 EC50
[2] = rat M1, FLIPR Ca2+, second value of the cell, read-out: ratM1 EC50

SMILES	EC50 (human M1; [1])	EC50 (ratM1; [2])	EC50 (human M1)	EC50 (ratM1)
Cc1cn(-c2ccc(Cn3cc(C(=O)N[C@H]4CCCC[C@@H]4O)c4c(F)c(F)ccc43)cc2)cn1 [Example 60, 4,5-difluoro-N-((1S,2S)-2-hydroxycyclohexyl)-1-(4-(4-methyl-1H-imidazol-1-yl)benzyl)-1H-indole-3-carboxamide]	101 nM	183 nM	–	–
O=C(N[C@H]1CCCC[C@@H]1O)c1cn(Cc2ccc(-c3cncnc3)cc2)c2cccc(F)c12 [Example 158, 4-Fluoro-N-((1S,2S)-2-hydroxycyclohexyl)-1-(4-(pyrimidin-5-yl)benzyl)-1H-indole-3-carboxamide]	23 nM	61 nM	–	–
Cc1ccc(F)c2c(C(=O)N[C@H]3CCCC[C@@H]3O)cn(Cc3ccc(-c4cnn(C)c4)cc3)c12 [Example 46, 4-fluoro-N-((1S,2S)-2-hydroxycyclohexyl)-7-methyl-1-(4-(1-methyl-1H-pyrazol-4-yl)benzyl)-1H-indole-3-carboxamide]	10.3 nM	22.2 nM	–	–
Cn1cc(-c2ccc(Cn3cc(C(=O)NC4CCC4)c4c(F)cccc43)cc2)cn1 [Example 11, N-cyclobutyl-4-fluoro-1-(4-(1-methyl-1H-pyrazol-4-yl)benzyl)-1H-indole-3-carboxamide]	413 nM	618 nM	–	–
Cn1cc(-c2ccc(Cn3cc(C(=O)N[C@H]4CCC[C@@H]4O)c4c(F)cccc43)c(F)c2)cn1 [Example 17, 4-Fluoro-1-(2-fluoro-4-(1-methyl-1H-pyrazol-4-yl)benzyl)-N-((1S,2S)-2-hydroxycyclopentyl)-1H-indole-3-carboxamide]	100 nM	169 nM	–	–
Cn1cc(-c2ccc(Cn3nc(C(=O)N[C@@H]4CCCC[C@H]4O)c4c(F)cccc43)c(F)c2)cn1 [Example 4, 4-fluoro-1-(2-fluoro-4-(1-methyl-1H-pyrazol-4-yl)benzyl)-N-((1R,2R)-2-hydroxycyclohexyl)-1H-indazole-3-carboxamide]	295 nM	1290 nM	–	–
Cn1cc(-c2ccc(Cn3cc(C(=O)N[C@H]4CCCC[C@@H]4O)c4c(F)c(F)ccc43)cn2)cn1 [Example 58, 4,5-difluoro-N-((1S,2S)-2-hydroxycyclohexyl)-1-((6-(1-methyl-1H-pyrazol-4-yl)pyridine-3-yl)methyl)-1H-indole-3-carboxamide]	174 nM	10000 nM	–	–
O=C(N[C@H]1CCCC[C@@H]1O)c1cn(Cc2ccc(-n3ccnc3)nc2)c2cccc(F)c12 [Example 142, 1-((6-(1H-imidazol-1-yl)pyridin-3-yl)methyl)-4-fluoro-N-((1S,2S)-2-hydroxycyclohexyl)-1H-indole-3-carboxamide]	75 nM	210 nM	–	–
Cn1cc(-c2ccc(Cn3cc(C(=O)N[C@H]4CCOC[C@@H]4O)c4c(F)c(F)c(F)c(F)c43)c(F)c2)cn1 (single isomer, unassigned) [Example 64, 4,5,6,7-Tetrafluoro-1-(2-fluoro-4-(1-methyl-1H-pyrazol-4-yl)benzyl)-N-((3R,4S) or (3S,4R))-3-hydroxytetrahydro-2H-pyran-4-yl)-1H-indole-3-carboxamide]	54.7 nM	79.9 nM	–	–
O=C(N[C@H]1CCCC[C@@H]1O)c1cn(Cc2ccc(-c3ccccc3)nc2)c2cccc(F)c12 [Example 131, 4-fluoro-N-((1S,2S)-2-hydroxycyclohexyl)-1-((6-phenylpyridin-3-yl)methyl)-1H-indole-3-carboxamide]	36 nM	152 nM	–	–
O=C(N[C@H]1CCCC[C@@H]1O)c1cn(Cc2cc(F)cc(F)c2)c2cccc(F)c12 [Example 43, 1-(3,5-difluorobenzyl)-4-fluoro-N-((1S,2S)-2-hydroxycyclohexyl)-1H-indole-3-carboxamide]	–	–	488 nM	632 nM
CNC(=O)c1ccc(Cn2cc(C(=O)NC3CCC(F)(F)CC3)c3c(F)cccc32)cc1 [Example 117, N-(4,4-difluorocyclohexyl)-4-fluoro-1-[[4-(methylcarbamoyl)phenyl]methyl]indole-3-carboxamide]	14 nM	29 nM	–	–
COc1ccc(F)c2c(C(=O)NC3CCOCC3)cn(Cc3ccc(-c4cnn(C)c4)cc3F)c12 [Example 152, 4-fluoro-1-(2-fluoro-4-(1-methyl-1H-pyrazol-4-yl)benzyl)-7-methoxy-N-(tetrahydro-2H-pyran-4-yl)-1H-indole-3-carboxamide]	260 nM	609 nM	–	–
Cc1nc(-c2ccc(Cn3cc(C(=O)N[C@H]4CCOC[C@@H]4O)c4c(F)cccc43)cc2)no1 [Example 83, 4-fluoro-N-((3R,4S)-3-hydroxytetrahydro-2H-pyran-4-yl)-1-(4-(5-methyl-1,2,4-oxadiazol-3-yl)benzyl)-1H-indole-3-carboxamide]	184 nM	160 nM	–	–
Cn1cc(-c2ccc(Cn3cc(C(=O)N[C@H]4CCOC[C@@H]4O)c4c(F)cccc43)c(F)c2)cn1 (mixture of isomers) [Example 6, 4-fluoro-1-(2-fluoro-4-(1-methyl-1H-pyrazol-4-yl)benzyl)-N-((3R,4RS)-3-hydroxytetrahydro-2H-pyran-4-yl)-1H-indole-3-carboxamide]	70 nM	147 nM	–	–
CNC(=O)c1ccc(Cn2cc(C(=O)NC3CCOCC3)c3c(F)cccc32)cc1F [Example 163, 4-Fluoro-1-(3-fluoro-4-(methylcarbamoyl)benzyl)-N-(tetrahydro-2H-pyran-4-yl)-1H-indole-3-carboxamide]	59 nM	82 nM	–	–
O=C(N[C@H]1CCCC[C@@H]1O)c1cn(Cc2ccc(-c3nccs3)cn2)c2cccc(F)c12 [Example 141, 4-fluoro-N-((1S,2S)-2-hydroxycyclohexyl)-1-((5-(thiazol-2-yl)pyridin-2-yl)methyl)-1H-indole-3-carboxamide]	155 nM	453 nM	–	–
Cn1ncc2cc(Cn3cc(C(=O)NC4CCOCC4)c4c(F)ccc(F)c43)ccc21 [Example 94, 4,7-difluoro-1-((1-methyl-1H-indazol-5-yl)methyl)-N-(tetrahydro-2H-pyran-4-yl)-1H-indole-3-carboxamide]	–	–	66 nM	141 nM
CNC(=O)c1ccc(Cn2cc(C(=O)NC)c3c(F)cccc32)cc1 [Example 110, 4-fluoro-N-methyl-1-[[4-(methylcarbamoyl)phenyl]methyl]indole-3-carboxamide]	141 nM	482 nM	–	–
Cn1cc(-c2ccc(Cn3cc(C(=O)N[C@H]4CCOC[C@@H]4O)c4c(F)cccc43)c(F)c2)cn1 (single isomer, unassigned) [Example 71, 4-Fluoro-1-(2-fluoro-4-(1-methyl-1H-pyrazol-4-yl)benzyl)-N-((3R,4S) or (3S,4R)-3-hydroxytetrahydro-2H-pyran-4-yl)-1H-indole-3-carboxamide]	5.92 nM	12 nM	–	–
Cn1cc(-c2ccc(Cn3nc(C(=O)N[C@H]4CCOC[C@@H]4O)c4c(F)cccc43)c(F)c2)cn1 (racemic) [Example 7, 4-fluoro-1-(2-fluoro-4-(1-methyl-1H-pyrazol-4-yl)benzyl)-N-((3RS,4SR)-3-hydroxytetrahydro-2H-pyran-4-yl)-1H-indazole-3-carboxamide]	70 nM	147 nM	–	–
N#Cc1ccc(Cn2cc(C(=O)N[C@H]3CCCC[C@@H]3O)c3c(F)cccc32)cc1 [Example 32, 1-(4-cyanobenzyl)-4-fluoro-N-((1S,2S)-2-hydroxycyclohexyl)-1H-indole-3-carboxamide]	–	–	105 nM	223 nM
